Patent US20060069132A1, “Azolecarboxamide herbicides” (priority 2004, published 2006)

Columns and labels:
rice = test: Test C flooded paddy test; type: in vivo, Oryza sativa
Summary of the method: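 Injury scored visually against controls on a 0 (no effect) to 100 (complete control) scale, 12 to 14 days after treatment in greenhouse. Flooded paddy plants treated at 2-leaf stage; postemergence plants at 1- to 4-leaf stage, 2 to 18 cm tall.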

lambsquarters = test: Test C pre-/postemergence herbicide test; type: in vivo, Chenopodium album
Summary of the method: (§1)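 Emerged plants at the 1- to 4-leaf stage (2–18 cm), or freshly planted seeds, received test chemicals in a non-phytotoxic solvent mixture with surfactant. Response was visually scored against controls after 12 to 14 days in the greenhouse, on a 0 (no effect) to 100 (complete control) scale.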

Surinam grass = test: Test C pre-/postemergence herbicide test; type: in vivo, Urochloa decumbens
Summary of the method: as §1

[1] = test system: smallflower umbrella sedge; test: Test C flooded paddy test; type: in vivo, Cyperus difformis
[2] = test system: common (oilseed) sunflower; test: Test C pre-/postemergence herbicide test; type: in vivo, Helianthus annuus
Summary of the method: as §1

giant foxtail = test: Test C pre-/postemergence herbicide test; type: in vivo, Setaria faberi; settings: for Plant response rating, Foxtail, Giant: visual, 12 to 14 days
Summary of the method: as §1

velvetleaf = test: Test A pre-/postemergence herbicide test; type: in vivo, Abutilon theophrasti
Summary of the method: (§2)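 Both application timings were run together: directed soil spray over freshly planted seeds in sandy loam, and runoff spray onto 2–10 cm seedlings. Evaluation after ~10 days in greenhouse used a 0–100 visual scale versus untreated controls.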

yellow nutsedge = test: Test C pre-/postemergence herbicide test; type: in vivo, Cyperus esculentus
Summary of the method: as §1

morningglory [3] = test: Test C pre-/postemergence herbicide test; type: in vivo, Ipomoea coccinea; design: key to Plant response rating, Morningglory: 0 = no effect, 100 = complete control
Summary of the method: as §1

morningglory [4] = test: Test A pre-/postemergence herbicide test; type: in vivo, Ipomoea spp.
Summary of the method: as §2

woolly cupgrass = test: Test C pre-/postemergence herbicide test; type: in vivo, Eriochloa villosa; settings: for Plant response rating, Cupgrass, Woolly: visual, 12 to 14 days
Summary of the method: as §1

ducksalad = test: Test C flooded paddy test; type: in vivo, Heteranthera limosa
corn = test: Test C pre-/postemergence herbicide test; type: in vivo, Zea mays; settings: for Plant response rating, Corn: visual, 12 to 14 days
Summary of the method: as §1

[5] = 62 g ai/ha, scale 0 to 100 (0 no effect, 100 complete control)
[6] = 125 g ai/ha, scale of 0 to 100, 0 is no effect, 100 is complete control
[7] = 250 g ai/ha, scale of 0 to 100, 0 is no effect, 100 is complete control
[8] = 500 g ai/ha, visual rating after 12 to 14 days, scale 0 to 100 (0 no effect, 100 complete control)
[9] = 125 g ai/ha, scale 0 (no effect) to 100 (complete control), visual, 12 to 14 days, preemergence
[10] = Preemergence, 500 g ai/ha, scale 0 to 100, 0 no effect, 100 complete control
[11] = 125 g ai/ha, scale 0 (no effect) to 100 (complete control), preemergence
[12] = 250 g ai/ha, scale 0 to 100 (0 no effect, 100 complete control), preemergence
[13] = Postemergence, 500 g ai/ha, 0 to 100 scale, 0 no effect, 100 complete control
[14] = Postemergence, 2000 g ai/ha, 0 to 100 scale, 0 no effect, 100 complete control
[15] = Preemergence, 500 g ai/ha, visual rating, 0 to 100 scale (0 no effect, 100 complete control)

## CCOC(=O)c1cccc(NC(=O)c2cc(C(C)(C)C)nn2CC)c1C [Compound 88]
rice; [5]
  Rice plant response rating: 0
rice; [6]
  Rice plant response rating: 0
rice; [7]
  Rice plant response rating: 20
rice; [8]
  Plant response rating, Rice: 45
lambsquarters; 62 g ai/ha, preemergence
  Plant response rating (0 = no effect, 100 = complete control), Lambsquarters: 95
lambsquarters; [9]
  Plant response rating, Lambsquarters: 95
lambsquarters; [10]
  Lambsquarters plant response rating: 100
Surinam grass; 62 g ai/ha, preemergence
  Plant response rating (0 = no effect, 100 = complete control), Surinam Grass: 10
Surinam grass; [9]
  Plant response rating, Surinam Grass: 20
Surinam grass; [10]
  Surinam Grass plant response rating: 95
[1]; [5]
  Sedge, Umbrella plant response rating: 0
[1]; [6]
  Sedge, Umbrella plant response rating: 50
[1]; [7]
  Sedge, Umbrella plant response rating: 80
[1]; [8]
  Plant response rating, Sedge, Umbrella: 80
[2]; 62 g ai/ha, preemergence
  Plant response rating (0 = no effect, 100 = complete control), Sunflower: 0
[2]; [9]
  Plant response rating, Sunflower: 0
[2]; [10]
  Sunflower plant response rating: 0
Giant foxtail; 62 g ai/ha, preemergence
  Plant response rating (0 = no effect, 100 = complete control), Foxtail, Giant: 0
Giant foxtail; [11]
  Plant response rating, Foxtail, Giant: 50
Giant foxtail; [12]
  Plant response rating, Foxtail, Giant: 85
Giant foxtail; [10]
  Foxtail, Giant plant response rating: 100
velvetleaf; [13]
  Velvetleaf plant response rating: 40
velvetleaf; [14]
  Plant response rating, Velvetleaf: 55
velvetleaf; [15]
  Velvetleaf plant response rating: 45
velvetleaf; Preemergence, 2000 g ai/ha, visual rating, 0 to 100 scale (0 no effect, 100 complete control)
  Velvetleaf plant response rating: 70
Yellow nutsedge; 62 g ai/ha, preemergence
  Plant response rating (0 = no effect, 100 = complete control), Nutsedge, Yellow: 0
Yellow nutsedge; [9]
  Plant response rating, Nutsedge, Yellow: 0
Yellow nutsedge; [10]
  Nutsedge, Yellow plant response rating: 0
Morningglory [3]; 62 g ai/ha, preemergence
  Plant response rating (0 = no effect, 100 = complete control), Morningglory: 0
Morningglory [3]; [9]
  Plant response rating, Morningglory: 0
Morningglory [3]; [10]
  Morningglory plant response rating: 20
Morningglory [4]; [13]
  Morningglory plant response rating: 35
Morningglory [4]; [14]
  Plant response rating, Morningglory: 40
Morningglory [4]; [15]
  Morningglory plant response rating: 10
Morningglory [4]; Preemergence, 2000 g ai/ha, 0 to 100 scale, 0 no effect, 100 complete control
  Morningglory plant response rating: 40
Woolly cupgrass; 62 g ai/ha, preemergence
  Plant response rating (0 = no effect, 100 = complete control), Cupgrass, Woolly: 20
Woolly cupgrass; [11]
  Plant response rating, Cupgrass, Woolly: 30
Woolly cupgrass; [12]
  Plant response rating, Cupgrass, Woolly: 80
Woolly cupgrass; [10]
  Cupgrass, Woolly plant response rating: 90
ducksalad; [5]
  Ducksalad plant response rating: 0
ducksalad; [6]
  Ducksalad plant response rating: 15
ducksalad; [7]
  Ducksalad plant response rating: 40
ducksalad; [8]
  Plant response rating, Ducksalad: 75
corn; 62 g ai/ha, preemergence
  Plant response rating (0 = no effect, 100 = complete control), Corn: 0
corn; [11]
  Plant response rating, Corn: 5
corn; [12]
  Plant response rating, Corn: 5
corn; [10]
  Corn plant response rating: 60
